Among the test systems are MDA-MB-435; HT29 colon; SF-539 CNS; UACC-257 melanoma; HOP-62 NSCLC; M14 melanoma; CAKI-1 renal; 786-0 renal; RXF 393 renal; NCI-H226 lung.
Common to all, as to test: NCI-60 cell line screen, 48 h

From PubChem BioAssay (NCI) come the findings set out here.

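Growth conditions: 96-well plates. Treatment: test compound, 48 hours, 5 concentrations. Analysis: linear interpolation between bracketing concentrations; unreached endpoints set to highest concentration. TGI: total growth inhibition.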

Turning to `N#CCCN(CCC#N)c1ccc(C(N=Nc2ccccc2)=Nc2ccc(F)cc2)cc1`, the TGI in the test with MDA-MB-435, in the test on HT29 colon, with SF-539 CNS, in the test on UACC-257 melanoma, in the test with HOP-62 NSCLC and in the test on M14 melanoma was above 100 µM in each case. For the same molecule, the TGI with CAKI-1 renal, in the test with 786-0 renal, in the test on RXF 393 renal and with NCI-H226 lung was above 100 µM in each case.
`COc1ccc(-c2cc3cc(Cl)cc(Cl)c3oc2=O)cc1OC`: the TGI with MDA-MB-435, in the test on HT29 colon, in the test with SF-539 CNS, in the test on UACC-257 melanoma, in the test on HOP-62 NSCLC and with M14 melanoma was above 100 µM each time. Further, the TGI with CAKI-1 renal is above 100 µM; in the test on 786-0 renal, above 100 µM; in the test on RXF 393 renal, 75.8 µM; with NCI-H226 lung, above 100 µM.
Turning to `COc1ccc(C(=O)/C=C/SC(=NC#N)SC)cc1`, the TGI came out at 49.2 µM in the test with MDA-MB-435; 49.5 µM with HT29 colon; 45.7 µM with SF-539 CNS; 40.5 µM in the test on UACC-257 melanoma; 44.1 µM with HOP-62 NSCLC; 35.1 µM with M14 melanoma. The TGI was found to be 54.8 µM in the test on CAKI-1 renal, 38.8 µM with 786-0 renal, 35.1 µM in the test on RXF 393 renal and 43.5 µM in the test with NCI-H226 lung.
With `O=C(Nc1nn(C(=O)c2cccnc2)c(=O)s1)c1ccc(Cl)cc1`, the TGI in the test with MDA-MB-435 is above 100 µM; with HT29 colon, above 100 µM; in the test with SF-539 CNS, 95.4 µM; in the test on UACC-257 melanoma, above 100 µM; in the test with HOP-62 NSCLC, above 100 µM; in the test on M14 melanoma it was above 100 µM. Besides, the TGI in the test on CAKI-1 renal is above 100 µM; in the test with 786-0 renal, above 100 µM; in the test on RXF 393 renal, 93.8 µM; in the test on NCI-H226 lung, 77.2 µM.
As to `CC1=C(C(=O)OCCO[N+](=O)[O-])C(c2ccccc2[N+](=O)[O-])C(C(=O)OC(C)C)=C(C)N1` (configuration not stated), the TGI in the test on MDA-MB-435 came out at 28.5 µM; in the test with HT29 colon it was 30.3 µM; in the test with SF-539 CNS it was 33.2 µM; in the test with UACC-257 melanoma, 28.7 µM; in the test with HOP-62 NSCLC, 33.8 µM; in the test with M14 melanoma, 29.3 µM. In addition, the TGI was found to be 59.7 µM with CAKI-1 renal, 41.4 µM in the test on 786-0 renal, 30.3 µM in the test on RXF 393 renal and 35 µM in the test on NCI-H226 lung.
For `CC(C)=CCc1c(O)cc2oc(-c3ccc(O)cc3O)cc(=O)c2c1O`, the TGI with MDA-MB-435 is above 75.5 µM; in the test with HT29 colon it was 49.8 µM; with SF-539 CNS, 58.7 µM; in the test with UACC-257 melanoma it was above 83.8 µM; in the test on HOP-62 NSCLC it was above 92.8 µM; in the test on M14 melanoma, above 77.9 µM. Further, the TGI in the test on CAKI-1 renal is above 81.4 µM; with 786-0 renal it was 74.5 µM; in the test with RXF 393 renal it was 64.8 µM; in the test with NCI-H226 lung, above 100 µM.
With `CO[P@@]1(=O)O[C@@H](c2ccccc2)[C@H](O)[C@]1(O)c1ccccc1`, the TGI in the test with MDA-MB-435, in the test with HT29 colon, with SF-539 CNS, with UACC-257 melanoma, with M14 melanoma and with CAKI-1 renal was above 100 µM each time. In addition, the TGI in the test with 786-0 renal, in the test on RXF 393 renal and with NCI-H226 lung was above 100 µM in each case.
For the molecule `Nc1c(N2CCOCC2)c(=O)nc2[nH]/c(=C\c3ccccc3O)c(=O)n12`, the TGI in the test with MDA-MB-435, in the test with HT29 colon, with SF-539 CNS, in the test on UACC-257 melanoma, in the test on M14 melanoma and in the test with CAKI-1 renal was above 100 µM each time. The TGI with 786-0 renal, in the test on RXF 393 renal and with NCI-H226 lung was above 100 µM each time.
Consider `CCN(CC)C(=S)N/N=C(/c1ccccc1)c1ccccn1`, for which the TGI was above 47.3 µM in the test on MDA-MB-435; above 40.1 µM in the test with HT29 colon; 4.24 µM in the test with SF-539 CNS; 2.56 µM with UACC-257 melanoma; 13.6 µM with HOP-62 NSCLC; 0.794 µM in the test with M14 melanoma. The TGI in the test on CAKI-1 renal is 11 µM; with 786-0 renal, 1.19 µM; in the test on RXF 393 renal, 8.63 µM; in the test with NCI-H226 lung, 7.65 µM.
As to `Cc1c(C(=O)NNc2ccccc2)n2c(=S)[nH]nc2c2ccccc12`, the TGI in the test on MDA-MB-435, in the test with HT29 colon, in the test on SF-539 CNS, in the test with UACC-257 melanoma, in the test on HOP-62 NSCLC and in the test with M14 melanoma was above 100 µM throughout. Moreover, the TGI in the test on CAKI-1 renal, with 786-0 renal, with RXF 393 renal and in the test with NCI-H226 lung was above 100 µM in each case.
`CC(C)=CCC[C@@H](C)C1=C(Nc2ccccc2F)C(O)=C(C)C(=O)C1=O`: the TGI was above 100 µM in the test with MDA-MB-435; 24.3 µM with HT29 colon; 59.8 µM in the test with SF-539 CNS; above 100 µM in the test on UACC-257 melanoma; above 72.1 µM with HOP-62 NSCLC; above 100 µM in the test with M14 melanoma. For the same molecule, the TGI is 34.2 µM with CAKI-1 renal, above 100 µM in the test with 786-0 renal, above 64.1 µM with RXF 393 renal and 24 µM with NCI-H226 lung.
On to `CCOC(=O)C(NC(=O)c1cccc(Cl)c1)(Nc1cccc(C)c1)C(F)(F)F` (configuration not stated), for which the TGI with MDA-MB-435 came out at 43.8 µM; in the test with HT29 colon it was 27.8 µM; in the test on SF-539 CNS, 32.7 µM; with UACC-257 melanoma, 71.5 µM; in the test with HOP-62 NSCLC it was 36.2 µM; in the test on CAKI-1 renal, 47.5 µM. Also, the TGI was 47 µM in the test on 786-0 renal, 26.2 µM with RXF 393 renal and 30.7 µM with NCI-H226 lung.
Take `O=C([C@H](O)[C@@H](O)c1cccc(Cl)c1)C12CC3CC(CC(C3)C1)C2`: the TGI with MDA-MB-435 amounted to 8.46 µM; in the test with HT29 colon it was 6.17 µM; in the test with SF-539 CNS, 3.61 µM; with UACC-257 melanoma it was 4.8 µM; in the test on HOP-62 NSCLC, 7.9 µM; with M14 melanoma, 7.16 µM. Further, the TGI is 3.98 µM in the test with CAKI-1 renal, 3.3 µM with 786-0 renal, 3.98 µM in the test on RXF 393 renal and 12.3 µM with NCI-H226 lung.
